Article PMC6143625, “A high throughput screen for next-generation leads targeting malaria parasite transmission” (Nature Communications, 2018)
Like-named read-outs stand apart in the source and are kept apart here.

Experiments:
[1] = tested on: P. falciparum stage V female gametocytes (female gamete formation); assay: P. falciparum dual gamete formation assay (Pf DGFA), female readout (Pfs25 expression), 48 h carry-over format; type: cell-based, Plasmodium falciparum NF54; settings: Plasmodium falciparum; for inhibition at 2 µM: primary screen, single replicate
[2] = tested on: P. falciparum 3D7 asexual blood stages; assay: Whole-cell time extended asexual growth assay (pLDH); type: cell-based; settings: Plasmodium falciparum; for inhibition at 2 µM: primary screen, read-out: %Inh Asex stages @2uM
Procedure: Asexual activity was assayed via Plasmodium lactate dehydrogenase activity (pLDH), a surrogate of asexual parasite growth. […] 2 µM artesunate and DMSO were used as the positive and negative controls, respectively. […] After plate mixing, NBT reduction was measured by absorbance at 650 nm using Envision (Perkin Elmer).

[3] = tested on: P. falciparum stage V male gametocytes (male gamete formation); assay: P. falciparum dual gamete formation assay (Pf DGFA), male readout (exflagellation), 48 h carry-over format; type: cell-based, Plasmodium falciparum NF54; settings: Plasmodium falciparum, 24h preincubation/carry-over
[4] = tested on: P. berghei-ANKA-GFP-Luc-SMCON sporozoites in HepG2-A16-CD81EGFP cells; assay: P. berghei liver stage assay (luciferase sporozoite HepG2 invasion); type: cell-based; settings: Plasmodium berghei, 48h incubation, read-out: Pb Liver invasion assay IC50
Procedure: Compound inhibition of P. berghei sporozoite liver infection was assessed in a high-throughput luciferase assay. 1536-well plates (789173-F, Greiner Bio-One) were pre-seeded with 5 µl HepG2-A16-CD81^EGFP cells grown in DMEM (11965–092, Invitrogen) containing 10% FBS (35–011-CV, Corning) and 1× Pen Strep Glutamine (10378–016, Invitrogen). Then, 50 nl of compound in DMSO was dispensed in 12-point serial dilution dose-response format (50 µM to 2.82 × 10^−4 µM), and incubated overnight.A. stephensi mosquitoes infected with P. berghei-ANKA-GFP-Luc-SMCON (Pb-Luc)[41] sporozoites bearing the antifolate-resistance-conferring Toxoplasma gondii dihydrofolate reductase-thymidylate synthase selectable marker, pyR2. After dissection, ~1000 sporozoites in 5 µl screening media (DMEM, 11965–092, Invitrogen; 5% FBS, 35–011-CV, Corning; 5x Pen Strep Glutamine, 10378–016, Invitrogen) were added per well and incubated for 48 h (37 °C, 5% CO2). Bioluminescence was measured using an EnVision microplate reader (Perkin Elmer), following the addition of 2 µl per well of Bright-Glo™ (Promega). Compound toxicity against HepG2 cells was determined in parallel by measuring cellular ATP levels reported by luciferase activity. Methods were similar to the P. berghei liver stage assay, except for the addition of CellTiter-Glo® (Promega) as a detection reagent. DMSO (0.5%) was used as a negative control in both assays, with Atovaquone (5 µM) and Puromycin (10 µM) acting as positive controls in the P. berghei and toxicity assays, respectively.

[5] = tested on: P. falciparum female gamete formation; assay: Pf DGFA add-in format, female readout; type: cell-based; settings: Plasmodium falciparum; 0h preincubation/add-in
Procedure: (§1) In profiling mode, the Pf DGFA was performed in 96-well plates[23] in wash-out and add-in formats to aid manual manipulation steps. In the wash-out format, gametocytes were incubated for 24 h with test compounds in round-bottomed 96 well plates and then culture medium replaced three times over 6 h, to remove as much of the compound as possible from the well. […] In add-in format, gametocytes were added directly to flat-bottomed 96-well plates containing test compounds, ookinete medium and anti-Pfs25.

HepG2 human cells = tested on: HepG2 human cells; set-up: method as in http://dx.doi.org/10.6019/CHEMBL3507680; settings: ref http://dx.doi.org/10.6019/CHEMBL3507680; cited from earlier work
[6] = tested on: P. falciparum male gamete formation; assay: Pf DGFA add-in format, male readout; type: cell-based, Plasmodium falciparum; settings: Plasmodium falciparum; 0h preincubation/add-in
Procedure: as §1

[7] = BPCA vs GHCDL stock of DDD599, adjusted for correct molecular weight, read-out: Pf DGFA female IC50
[8] = profiling / reconfirmation, read-out: Pf asexual IC50
[9] = 24h preincubation/carry-over, read-out: Pf DGFA Female IC50
[10] = 72h incubation, read-out: Pf Asexual IC50
[11] = dose response retest, 72 h, read-out: IC50 (µM) Asex stages
[12] = 48 h, dose response retest of primary hits, 48 h incubation, read-out: Female IC50
[13] = 48h preincubation/carry-over, read-out: Pf DGFA Female IC50
[14] = SAR, Fig. 7, read-out: Female IC50

| SMILES | IC50 [1, 7] [µM] | IC50 [2, 8] [µM] | IC50 [1, 9] [µM] | IC50 ([1]; compound resynthesised at GSK, read-out: IC50 against female gametocytes) [µM] | IC50 [2, 10] [µM] | IC50 ([2]; compound resynthesised at GSK, read-out: IC50 against asexuals) [µM] | IC50 [2, 11] [µM] | inhibition at 2 µM ([2]; 72 h) [%] | IC50 [3] [µM] | IC50 [4] [µM] | IC50 [5] [µM] | %Inh HepG2 @10uM (HepG2 human cells) [%] | IC50 [6] [µM] | IC50 [1, 12] [µM] | IC50 [1, 13] [µM] | IC50 [1, 14] [µM] | inhibition at 2 µM ([1]; 48 h incubation) [%] |
| --- | --- | --- | --- | --- | --- | --- | --- | --- | --- | --- | --- | --- | --- | --- | --- | --- | --- |
| O=C(CCl)Nc1ccc(Br)cc1 [BPCA, N-(4-bromophenyl)-2-chloroacetamide] | 11 | 0.8 | – | – | – | – | – | – | – | – | – | – | – | – | – | – | – |
| CC(=O)c1c(C)nn(CC(=O)Nc2ccc(Br)cc2)c1C [DDD01027599] | 3.43 | 0.8 | > 12.5 | > 50 | 0.64 | > 50 | 1.02 | 80.5 | 4.03 | 7.48 | > 10 | 4.72 | > 10 | – | – | – | – |
| O=S(=O)(NCC1(O)CCOc2ccccc21)c1ccccc1F (stereo not drawn) [DDD01028073] | – | – | > 12.5 | – | > 20 | – | – | – | 0.58 | > 50 | > 10 | -4.25 | 0.34 | > 10 | > 12.5 | > 12.5 | < 30 |
| Cc1ccc(S(=O)(=O)NCC2(O)CCOc3ccccc32)s1 (stereo not drawn) [DDD01028074] | – | – | > 12.5 | – | > 20 | – | – | – | 0.79 | > 50 | > 10 | -4.01 | 0.61 | > 10 | > 12.5 | > 12.5 | < 30 |
| O=S(=O)(NCC1(O)CCOc2ccccc21)c1ccc(Cl)s1 (stereo not drawn) [DDD01028075] | – | – | > 12.5 | – | > 20 | – | – | – | 1.32 | > 50 | > 10 | -6.65 | 0.24 | > 10 | > 12.5 | > 12.5 | < 30 |
| O=S(=O)(NCC1(O)CCOc2ccccc21)c1ccccc1Br (stereo not drawn) [DDD01028076] | – | – | > 12.5 | – | > 20 | – | – | – | 0.48 | > 50 | > 10 | -0.163 | 0.53 | > 10 | > 12.5 | > 12.5 | < 30 |
| COc1cccc(-n2ccc3nc(N4CCCC4)ncc3c2=O)c1 [DDD01034957] | – | – | > 12.5 | – | 0.17 | – | 0.72 | 58.1 | > 12.5 | – | > 10 | -4.05 | > 10 | – | > 12.5 | – | – |
| O=S(=O)(NCC1(O)CCOc2ccccc21)c1cccs1 (stereo not drawn) [DDD01035879] | – | – | > 12.5 | – | > 20 | – | – | – | 0.89 | > 50 | > 10 | 3.15 | 0.28 | > 10 | > 12.5 | > 12.5 | < 30 |
| O=S(=O)(NCC1(O)CCOc2ccccc21)c1ccc(Br)s1 (stereo not drawn) [DDD01035881] | – | – | > 12.5 | – | 17.5 | – | – | – | 0.26 | – | > 10 | 3.29 | 0.19 | > 10 | > 12.5 | > 12.5 | < 30 |
| Cc1cccc(NC(=O)c2cccc(OCc3nnnn3C)c2)n1 [DDD01038630] | – | – | > 12.5 | – | 1.13 | – | 0.963 | 84.5 | > 12.5 | > 50 | > 10 | 18.75 | > 10 | – | > 12.5 | – | – |
